Measured values published in ChEMBL document CHEMBL4602732, “Optimizing Pyrazolopyrimidine Inhibitors of Calcium Dependent Protein Kinase 1 for Treatment of Acute and Chronic Toxoplasmosis” (J Med Chem, 2020).

Columns and labels:
[1] = Genotoxicity in Salmonella typhimurium TA98 at 0.004 to 5 mg/ml measured after 90 mins in absence of rat S9 fraction by mini-Ames test; assay type: toxicity; details: salmonella enterica subsp. enterica serovar typhimurium
[2] = Toxicity in CD1 mouse assessed as adverse effect at 600 mg/kg measured for 7 days; assay type: organism-based; details: in vivo, 168 h
[3] = Genotoxicity in Salmonella typhimurium TA98 at 0.004 to 5 mg/ml measured after 90 mins in presence of rat S9 fraction by mini-Ames test; assay type: toxicity, subcellular; details: salmonella enterica subsp. enterica serovar typhimurium
CHO-K1 [4] = assay: Genotoxicity in CHOK1 cells measured after 24 hrs in absence of Sprague-Dawley rat liver S9 fraction by Hoechst/calcein-AM staining based micronucleus test; assay type: toxicity, cell-based, Cricetulus griseus; details: chinese hamster, cho-k1, 24 h
[5] = Apparent permeability across apical to basolateral side in MDCK2-MDR1 cells at 2 uM measured after 150 mins by LC-MS/MS analysis; assay type: ADME, cell-based, Canis lupus familiaris; details: dog, mdck-mdr1, […]
[6] = target: Proto-oncogene tyrosine-protein kinase Src (Homo sapiens, UniProt P12931); assay: Inhibition of human Src expressed in Escherichia coli BL21 using Abltide peptide as substrate incubated for 20 to 40 mins by ELISA
PTK6 = PTK6 (Homo sapiens, UniProt Q13882); assay: Inhibition of recombinant human full-length His-tagged PTK6 cytoplasmic domain expressed in baculovirus expression system at 1 uM using Fluorescein-Poly GT as substrate by Lanthascreen assay relative to control; details: probe Fluorescein-Poly GT
LCK = LCK (Homo sapiens, UniProt P06239); assay: Inhibition of wild-type human partial length LCK (R207 to P509 residues) expressed in bacterial expression system at 10 uM by Kinomescan method relative to control
Aldehyde oxidase = target: T1, Aldehyde oxidase (Homo sapiens, UniProt Q06278); assay: Drug metabolism in human liver S9 fraction assessed as aldehyde oxidase-mediated drug metabolism by measuring rate of parent compound decay at 1 uM measured after 90 mins by LC-MS/MS analysis; assay type: ADME, subcellular
T1 sequence (Q06278 whole entry): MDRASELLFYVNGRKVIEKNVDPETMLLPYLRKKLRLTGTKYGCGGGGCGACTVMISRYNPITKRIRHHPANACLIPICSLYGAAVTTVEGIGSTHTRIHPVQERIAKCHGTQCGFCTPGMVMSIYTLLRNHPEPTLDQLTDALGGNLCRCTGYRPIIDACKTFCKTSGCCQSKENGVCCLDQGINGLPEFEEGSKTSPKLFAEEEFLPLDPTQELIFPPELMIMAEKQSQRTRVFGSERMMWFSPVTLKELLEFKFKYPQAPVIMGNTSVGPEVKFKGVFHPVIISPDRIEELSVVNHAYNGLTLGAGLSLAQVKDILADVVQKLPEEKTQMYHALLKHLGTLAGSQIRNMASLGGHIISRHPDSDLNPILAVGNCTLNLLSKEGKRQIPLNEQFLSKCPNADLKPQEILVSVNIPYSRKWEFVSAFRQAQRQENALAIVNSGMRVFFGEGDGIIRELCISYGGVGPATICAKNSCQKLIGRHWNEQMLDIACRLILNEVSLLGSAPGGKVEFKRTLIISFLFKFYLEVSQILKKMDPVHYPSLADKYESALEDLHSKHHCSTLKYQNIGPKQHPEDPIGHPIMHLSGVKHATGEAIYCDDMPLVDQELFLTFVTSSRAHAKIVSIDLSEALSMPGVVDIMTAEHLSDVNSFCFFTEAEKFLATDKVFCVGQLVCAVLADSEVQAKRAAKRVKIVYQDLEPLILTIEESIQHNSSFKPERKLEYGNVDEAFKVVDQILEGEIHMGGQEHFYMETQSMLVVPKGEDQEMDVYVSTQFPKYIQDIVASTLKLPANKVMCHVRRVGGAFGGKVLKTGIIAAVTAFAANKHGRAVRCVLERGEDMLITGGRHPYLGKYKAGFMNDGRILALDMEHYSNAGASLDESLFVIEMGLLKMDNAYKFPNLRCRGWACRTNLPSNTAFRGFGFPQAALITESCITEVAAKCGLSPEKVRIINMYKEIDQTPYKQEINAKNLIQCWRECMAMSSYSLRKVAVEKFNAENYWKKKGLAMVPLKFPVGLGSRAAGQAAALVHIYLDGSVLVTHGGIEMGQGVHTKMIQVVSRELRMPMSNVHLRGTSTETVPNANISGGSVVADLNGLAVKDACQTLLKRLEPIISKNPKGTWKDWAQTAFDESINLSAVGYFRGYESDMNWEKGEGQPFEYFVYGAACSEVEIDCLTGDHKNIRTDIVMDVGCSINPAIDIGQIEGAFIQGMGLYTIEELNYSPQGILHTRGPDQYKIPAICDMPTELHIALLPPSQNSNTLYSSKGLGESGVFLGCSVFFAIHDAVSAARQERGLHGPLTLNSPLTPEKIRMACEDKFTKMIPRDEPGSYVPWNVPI

[7] = Inhibition of Toxoplasma gondii full-length wild-type C-terminal His-tagged CDPK1 expressed in Escherichia coli BL21(DE3)V2RpAcYc-LIC+LamP using syntide-2 peptide as substrate incubated for 20 to 40 mins by ELISA
[8] = Cytotoxicity against human Caco2 cells assessed as cell growth at 20 uM measured after 72 hrs by cellTiter 96 AQueous non-radioactive cell proliferation assay relative to control; assay type: cell-based, Caco-2; details: read-out: Activity
[9] = Half life in human liver microsomes at 10 uM preincubated for 10 mins followed by NADPH addition by LC-MS/MS analysis; assay type: ADME, Microsome; details: liver microsomes
[10] = Cmax in CD1 mouse at 3 mg/kg, iv or 10 mg/kg, po administered via gavage by LC-MS/MS analysis; assay type: ADME, organism-based; details: in vivo
[11] = Cytotoxicity against HFF monolayers assessed as cell growth measured after 72 hrs by luciferase reporter gene assay relative to control; assay type: cell-based; details: human, read-out: Activity
[12] = Cytotoxicity against human SH-SY5Y cells assessed as cell growth at 20 uM measured after 72 hrs by cellTiter 96 AQueous non-radioactive cell proliferation assay relative to control; assay type: cell-based; details: read-out: Activity
CHO-K1 [13] = assay: Genotoxicity in CHOK1 cells measured after 3 hrs in presence of Sprague-Dawley rat liver S9 fraction by Hoechst/calcein-AM staining based micronucleus test; assay type: toxicity, cell-based, Cricetulus griseus; details: chinese hamster, s9, 3 h
[14] = target: Casein kinase I epsilon (CKepsilon) (Homo sapiens, UniProt P49674); assay: Inhibition of recombinant human full-length His-tagged CKepsilon expressed in baculovirus expression system at 1 uM by Lanthascreen assay relative to control
[15] = Inhibition of Toxoplasma gondii full-length C-terminal His-tagged CDPK1 G128M mutant expressed in Escherichia coli BL21(DE3)V2RpAcYc-LIC+LamP using syntide-2 peptide as substrate incubated for 20 to 40 mins by ELISA
[16] = Cytotoxicity against MDCK cells assessed as cell growth at 20 uM measured after 72 hrs by cellTiter 96 AQueous non-radioactive cell proliferation assay relative to control; assay type: cell-based, Canis lupus familiaris; details: dog, read-out: Activity
[17] = Cytotoxicity against human HepG2 cells assessed as cell growth at 20 uM measured after 72 hrs by cellTiter 96 AQueous non-radioactive cell proliferation assay relative to control; assay type: cell-based; details: read-out: Activity

Sequence of PTK6 (Q13882 whole entry, the tested form may be a part): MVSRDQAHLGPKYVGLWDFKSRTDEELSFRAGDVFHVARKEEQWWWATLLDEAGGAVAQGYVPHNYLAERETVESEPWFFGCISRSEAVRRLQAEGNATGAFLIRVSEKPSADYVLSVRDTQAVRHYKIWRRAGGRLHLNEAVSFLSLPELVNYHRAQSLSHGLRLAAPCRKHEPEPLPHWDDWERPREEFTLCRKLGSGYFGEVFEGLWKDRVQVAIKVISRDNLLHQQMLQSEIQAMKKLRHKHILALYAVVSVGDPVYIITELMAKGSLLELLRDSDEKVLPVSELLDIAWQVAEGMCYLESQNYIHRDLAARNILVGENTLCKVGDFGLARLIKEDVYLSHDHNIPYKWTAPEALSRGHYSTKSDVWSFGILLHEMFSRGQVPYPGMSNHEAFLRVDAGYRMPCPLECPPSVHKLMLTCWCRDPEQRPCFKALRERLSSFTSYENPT
Sequence of LCK (P06239 whole entry, the tested form may be a part): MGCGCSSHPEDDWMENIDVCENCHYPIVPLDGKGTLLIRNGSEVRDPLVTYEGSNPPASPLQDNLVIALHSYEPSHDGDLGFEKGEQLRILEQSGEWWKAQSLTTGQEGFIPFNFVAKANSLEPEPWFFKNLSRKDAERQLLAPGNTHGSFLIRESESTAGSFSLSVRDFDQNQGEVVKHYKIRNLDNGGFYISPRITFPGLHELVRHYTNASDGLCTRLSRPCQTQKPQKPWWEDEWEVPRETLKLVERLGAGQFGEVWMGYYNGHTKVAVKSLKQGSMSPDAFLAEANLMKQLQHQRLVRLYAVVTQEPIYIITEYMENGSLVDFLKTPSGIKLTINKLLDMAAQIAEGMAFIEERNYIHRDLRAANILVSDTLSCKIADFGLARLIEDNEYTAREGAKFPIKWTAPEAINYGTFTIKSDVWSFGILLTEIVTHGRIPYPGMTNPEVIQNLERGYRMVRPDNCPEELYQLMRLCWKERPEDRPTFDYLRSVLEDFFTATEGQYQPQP
Sequence of Casein kinase I epsilon (CKepsilon) (P49674 whole entry): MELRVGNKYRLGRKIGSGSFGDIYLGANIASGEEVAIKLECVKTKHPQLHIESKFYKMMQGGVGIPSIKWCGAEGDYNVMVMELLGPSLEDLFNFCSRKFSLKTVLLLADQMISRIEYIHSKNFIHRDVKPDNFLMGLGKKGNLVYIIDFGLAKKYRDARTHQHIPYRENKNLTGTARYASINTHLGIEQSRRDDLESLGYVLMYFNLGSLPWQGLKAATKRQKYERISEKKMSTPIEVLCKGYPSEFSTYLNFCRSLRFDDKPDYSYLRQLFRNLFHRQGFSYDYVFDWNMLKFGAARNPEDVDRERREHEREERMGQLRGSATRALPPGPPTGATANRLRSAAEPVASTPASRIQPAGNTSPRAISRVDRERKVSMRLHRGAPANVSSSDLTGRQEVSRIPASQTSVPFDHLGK
Sequence of Proto-oncogene tyrosine-protein kinase Src (P12931 2-536 limits assumed): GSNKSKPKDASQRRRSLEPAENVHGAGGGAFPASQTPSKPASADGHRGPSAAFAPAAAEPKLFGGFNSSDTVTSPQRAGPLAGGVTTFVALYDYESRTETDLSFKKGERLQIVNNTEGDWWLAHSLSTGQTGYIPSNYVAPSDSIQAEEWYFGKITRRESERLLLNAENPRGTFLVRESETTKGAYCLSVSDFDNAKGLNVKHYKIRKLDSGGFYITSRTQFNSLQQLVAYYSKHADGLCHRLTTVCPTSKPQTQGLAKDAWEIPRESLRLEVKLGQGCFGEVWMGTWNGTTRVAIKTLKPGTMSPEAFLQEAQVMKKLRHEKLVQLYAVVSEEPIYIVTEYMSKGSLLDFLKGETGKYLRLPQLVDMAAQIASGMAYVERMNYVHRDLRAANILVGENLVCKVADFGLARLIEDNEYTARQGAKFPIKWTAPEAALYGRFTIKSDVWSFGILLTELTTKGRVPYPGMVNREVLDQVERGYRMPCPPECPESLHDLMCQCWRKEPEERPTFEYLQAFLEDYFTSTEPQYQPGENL

SMILES	Activity [1]	Activity [2]	Activity [3]	Activity (CHO-K1 [4]) [µM]	Papp [5] [×10⁻⁶ cm/s]	IC50 [6] [µM]	inhibition at 1 µM (PTK6) [%]	inhibition at 10 µM (LCK) [%]	Drug metabolism (Aldehyde oxidase) [µL/min/mg]	IC50 [7] [µM]	viability at 72 h, 20 µM [8] [%]	half-life at 10 µM [9] [h]	Cmax [10] [ng/mL]	viability at 72 h [11] [%]	viability at 72 h, 20 µM [12] [%]	Activity (CHO-K1 [13]) [µM]	inhibition at 1 µM [14] [%]	IC50 [15] [µM]	viability at 72 h, 20 µM [16] [%]	viability at 72 h, 20 µM [17] [%]
Nc1ncnc2c1c(Oc1cc(C(F)(F)F)ccn1)nn2C1CC1	Non-Toxic	Non-Toxic	Non-Toxic	> 1000	33	> 20	> 50	55	< 3.2	0.016 to 0.0165	93.3	> 2.42	2067	106	103	> 1000	> 50	> 20	97.8	104
N#Cc1ccnc(Oc2nn([C@H]3C[C@H](F)C3)c3ncnc(N)c23)c1	Non-Toxic	Non-Toxic	Non-Toxic	> 100	26.87	> 20	> 50	74	< 3.2	0.0149 to 0.015	95.5	> 2.42	1503	112	103	> 100	> 50	> 20	79.4	101
